Measured values published in patent US12479892B2, “Immunogenic protein against gonococcal infection” (priority 2019, dated 2025).
Like-named read-outs stand apart in the source and are kept apart here.

Columns and labels:
[1] = molecular target: NHBANg (Neisseria gonorrhoeae, UniProt B4RQT3); assay: SPR analysis of glycan binding; settings: for SPR binding, in words: glycans 100 μM to 1 nM
Protocol: Surface plasmon resonance (SPR) was performed using a BIAcore T200 instrument with recombinant NHBANg (100 μg/ml) immobilized on flow cells 2-4 by amine coupling on series S CMS sensor chips (GE Healthcare) as described previously. Flow cell 1 was used as the reference cell and immobilized with ethanolamine only. Single cycle kinetics was used to calculate the affinity (KD) of interactions with glycans run in 1:5 dilution series at concentrations between 100 μM to 1 nM. Results were analysed using BIAcore T200 software 2.0.2.

[2] = molecular target: NHBANm (Neisseria meningitidis serogroup B, UniProt Q7DD37); settings: cited from earlier work
[3] = system: N. gonorrhoeae 1291 ΔNHBA; assay: Normal human serum survival assay; format: cell-based, Neisseria gonorrhoeae; settings: ΔNHBA mutant; 10% normal human serum, 60 minutes; 6 μM heparin pre-incubation
Protocol: Resistance of N. gonorrhoeae to serum-mediated killing was tested as described previously with ˜10^4 CFU incubated in 10% (v/v) for 60 minutes at 37° C. and subsequently plated on GC agar. Bacteria were pre-incubated with 6 μM heparin 30 minutes where indicated. Bacterial survival was calculated as percent CFU (average from three replicate wells) relative to no treatment control.

[4] = system: N. gonorrhoeae adherence to cervical (tCX) epithelial cells; assay: Blocking of gonococcal adherence by sera, cervical epithelial cells; format: cell-based, Neisseria gonorrhoeae
Protocol: (§1) Gonococcal adherence assays were performed as described previously with following modifications. Briefly, tCX and tUEC cell monolayers were infected (10 min at 37° C.) with approximately 1×10^5 CFU that was initially pre-incubated with serial dilutions of heat-inactivated mouse sera for 30 min at room temperature. Following the infection, cell monolayers were washed three times with warm HBSS to remove non-adherent bacteria and well contents plated onto GC agar. Results were calculated as the mean CFU from three replicate wells and presented as percentage of adherent bacteria relative to no antibody control. Statistical analysis performed with ANOVA and two-tailed Student's t-test. Each experiment was performed three times.

[5] = system: NHBA-heparin interactions; assay: SPR competition assay, blocking of NHBA-heparin interactions by sera; format: binding, Neisseria gonorrhoeae; settings: 1:200 dilution of serum; heparin max 50 μM
Protocol: SPR competition assays were performed using a Pall Pioneer FE. Competition assays were performed as previously described using NextStep injections in the OneStep assay builder. Pre- and post-immune NHBA mouse sera were used as the first injection (A), and heparin as the second injection (B). Binding of heparin (maximum OneStep concentration of 50 μM) to NHBA was compared with and without serum, and with 1:200 dilution of pre- or post-immune serum. Data was collected using the Pioneer Software package and analyzed using Qdat analysis software. The percentage blocking was calculated based on the relative RMax of the heparin injection without serum (Injection A=buffer; B=heparin) versus the serum subtracted (Injection A=pre/postimmune serum; B=buffer) binding of heparin in the presence of serum ((Injection A=pre/postimmune serum; B=heparin).

[6] = system: N. gonorrhoeae adherence to urethral (tUEC) epithelial cells; assay: Blocking of gonococcal adherence by sera, urethral epithelial cells; format: cell-based, Neisseria gonorrhoeae
Protocol: as §1

[7] = single cycle kinetics, immobilised NHBANg, read-out: KD

## C[C@@H]1O[C@@H](O[C@@H]2[C@@H](O)[C@@H](O)[C@@H](CO)O[C@H]2O)[C@@H](O)[C@H](O)[C@@H]1O [H-disaccharide]
[1]
  SPR binding, in words: No concentration dependent binding

## CC(=O)N[C@H]1[C@H](O[C@H]2[C@@H](O)[C@@H](CO)O[C@@H](O[C@H]3[C@H](O)[C@@H](O)C(O)O[C@@H]3CO)[C@@H]2O)O[C@H](CO)[C@@H](O[C@@H]2O[C@H](CO)[C@H](O)[C@H](O)[C@H]2O)[C@@H]1O (stereo partly drawn) [LNnT, lacto N-neotetraose]
[1]
  Kd: 4890 nM

## CC(=O)N[C@H]1[C@H](O[C@H]2[C@@H](O)[C@@H](CO)O[C@@H](O[C@H]3[C@H](O)[C@@H](O)C(O)O[C@@H]3CO)[C@@H]2O)O[C@H](CO[C@]2(C(=O)O)C[C@H](O)[C@@H](NC(C)=O)[C@H]([C@H](O)[C@H](O)CO)O2)[C@@H](O)[C@@H]1O[C@@H]1O[C@H](CO)[C@H](O)[C@H](O)[C@H]1O (stereo partly drawn) [LSTb]
[1]
  Kd: 2260 nM

## CC(=O)N[C@H]1[C@H](O[C@H]2[C@@H](O)[C@@H](CO)O[C@@H](O[C@H]3[C@H](O)[C@@H](O)C(O)O[C@@H]3CO)[C@@H]2O)O[C@H](CO)[C@@H](O[C@@H]2O[C@H](CO[C@]3(C(=O)O)C[C@H](O)[C@@H](NC(C)=O)[C@H]([C@H](O)[C@H](O)CO)O3)[C@H](O)[C@H](O)[C@H]2O)[C@@H]1O (stereo partly drawn) [LSTc]
[1]
  Kd: 240 nM

## CC(=O)N[C@H]1C(O)O[C@H](CO)[C@@H](O[C@@H]2O[C@H](CO)[C@H](O)[C@H](O)[C@H]2O)[C@@H]1O[C@@H]1O[C@@H](C)[C@@H](O)[C@@H](O)[C@@H]1O (stereo partly drawn) [Lewis X]
[1]; ratio of KD
  fold greater affinity than for sialyl Lewis X: 5 fold
[1]; [7]
  Kd: 680 nM

## CC(=O)N[C@H]1[C@H]([C@H](O)[C@H](O)CO)O[C@@](O[C@H]2[C@@H](O)[C@@H](CO)O[C@@H](O[C@H]3[C@H](O[C@@H]4O[C@@H](C)[C@@H](O)[C@@H](O)[C@@H]4O)[C@@H](NC(C)=O)C(O)O[C@@H]3CO)[C@@H]2O)(C(=O)O)C[C@@H]1O (stereo partly drawn) [sialyl Lewis X]
[1]; single cycle kinetics, immobilised NHBANg
  Kd: 3650 nM

## O=C[C@H](O)[C@@H](O)[C@H](O)[C@H](O)COP(=O)(O)O [β-Glc6P, glucose 6-phosphate]
[2]
  Kd: 56 nM

## chondroitin 4-sulfate [chondroitin sulfate A]
[1]
  SPR binding, in words: no concentration dependent binding

## chondroitin 6-sulfate [chondroitin sulfate C]
[1]
  SPR binding, in words: bound

## chondroitin sulfate
[1]; [7]
  Kd: 73 nM

## dermatan sulfate [chondroitin sulfate B]
[1]
  SPR binding, in words: no concentration dependent binding

## heparan sulfate
[1]; [7]
  Kd: 2790 nM

## heparin
[1]; [7]
  Kd: 4.4 nM
[3]
  survival in human serum after pre-treatment, in words: increased survival

## hyaluronan
[1]
  SPR binding, in words: No concentration dependent binding

B1: NHBA-c: C-terminal fragment of NHBA of N. gonorrhoeae 1291 (SEQ ID NO:2, 183 amino acids); antisera to it, adjuvant not stated at place (protein)
chain: SLPAEIPLIPVNQADTLIVDGEAVSLTGHSGNIFAPEGNYRYLTYGAEKLPGGSYALRVQGEPAKGEMLAGTAVYNGEVLHFHMENGRPYPSGGRFAAKVDFGSKSVDGIIDSSDDLHMGTQKFKAAIDGNGFKGTWTENGGGDVSGRFYGPAGEEVAGKYSYRPTDAEKGGFGVFAGKKDRD
modifications: Neisseria gonorrhoeae (strain 1291)
[4]; cervical epithelial cells, all tested concentrations, relative to untreated control
  adherence of serum-treated gonococci, in words: significantly reduced adherence
[4]; tCX cells, 1:20 dilution of sera, relative to no antibody control
  decrease of gonococcal adherence: 8 fold
[5]
  reduction of heparin binding to NHBA: 11%
[6]; tUEC cells, 1:20 dilution of sera, relative to no antibody control
  decrease of gonococcal adherence: 5 fold
[6]; urethral epithelial cells, all tested concentrations, relative to untreated control
  adherence of serum-treated gonococci, in words: significantly reduced adherence
